Measured values reported in patent publication US20230117470A1, “SUBSTITUTED PYRAZOLE COMPOUNDS AS TOLL RECEPTOR INHIBITORS” (BRISTOL-MYERS SQUIBB COMPANY, priority 2019, published 2023).
Where a name gives a salt, the structure may show the parent alone.

Key:
Assay type in all cases: cell-based
[1] = molecular target: T1, human TLR8 (Homo sapiens, UniProt Q9NR97); test: TLR8 inhibition reporter assay (HEK-Blue cells, SEAP reporter, R848 stimulation); conditions: HEK-Blue cells overexpressing human TLR8, SEAP reporter, R848 15.9 μM
T1 construct: host or cells: HEK-Blue cells
T1 sequence (Q9NR97 27-1041): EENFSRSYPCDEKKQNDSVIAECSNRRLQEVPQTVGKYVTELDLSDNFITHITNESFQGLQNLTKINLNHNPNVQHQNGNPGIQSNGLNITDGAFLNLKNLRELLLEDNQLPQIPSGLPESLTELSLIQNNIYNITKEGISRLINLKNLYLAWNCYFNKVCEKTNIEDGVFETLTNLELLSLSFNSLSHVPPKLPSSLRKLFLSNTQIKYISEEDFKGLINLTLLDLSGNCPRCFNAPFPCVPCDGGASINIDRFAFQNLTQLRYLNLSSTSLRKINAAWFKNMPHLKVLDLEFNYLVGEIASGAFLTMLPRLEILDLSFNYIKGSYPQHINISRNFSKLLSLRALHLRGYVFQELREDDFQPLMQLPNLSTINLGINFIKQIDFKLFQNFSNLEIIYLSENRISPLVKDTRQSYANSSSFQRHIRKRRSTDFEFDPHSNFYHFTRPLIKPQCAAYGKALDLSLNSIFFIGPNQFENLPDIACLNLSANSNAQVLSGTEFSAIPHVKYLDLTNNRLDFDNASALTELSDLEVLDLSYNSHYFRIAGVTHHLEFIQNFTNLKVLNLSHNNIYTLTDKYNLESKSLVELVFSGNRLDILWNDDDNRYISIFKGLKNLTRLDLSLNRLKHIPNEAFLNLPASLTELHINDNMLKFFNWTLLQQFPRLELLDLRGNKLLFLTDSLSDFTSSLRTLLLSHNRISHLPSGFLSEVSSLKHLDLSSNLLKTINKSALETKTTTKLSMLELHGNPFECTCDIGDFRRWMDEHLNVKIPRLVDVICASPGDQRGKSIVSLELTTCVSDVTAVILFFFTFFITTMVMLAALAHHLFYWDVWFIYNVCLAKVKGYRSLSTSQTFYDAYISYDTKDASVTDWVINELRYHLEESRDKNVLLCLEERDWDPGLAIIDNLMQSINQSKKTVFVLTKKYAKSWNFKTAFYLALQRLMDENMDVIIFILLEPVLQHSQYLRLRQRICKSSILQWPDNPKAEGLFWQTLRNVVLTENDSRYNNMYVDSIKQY
Method in brief: (§1)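 30 min RT cpd pre-incubation (0.05 nM–50 μM final dose response) → agonist: gardiquimod 7.5 μM / R848 15.9 μM / ODN2006 5 nM for TLR7/8/9 resp. → 22 h, 37° C → SEAP via detection medium. % inhibition vs agonist+DMSO and reference inhibitor controls.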

[2] = molecular target: T2, human TLR9 (Homo sapiens, UniProt Q9NR96); test: TLR9 inhibition reporter assay (HEK-Blue cells, SEAP reporter, ODN2006 stimulation); conditions: HEK-Blue cells overexpressing human TLR9, SEAP reporter, ODN2006 5 nM
T2 construct: host or cells: HEK-Blue cells
T2 sequence (Q9NR96 26-1032): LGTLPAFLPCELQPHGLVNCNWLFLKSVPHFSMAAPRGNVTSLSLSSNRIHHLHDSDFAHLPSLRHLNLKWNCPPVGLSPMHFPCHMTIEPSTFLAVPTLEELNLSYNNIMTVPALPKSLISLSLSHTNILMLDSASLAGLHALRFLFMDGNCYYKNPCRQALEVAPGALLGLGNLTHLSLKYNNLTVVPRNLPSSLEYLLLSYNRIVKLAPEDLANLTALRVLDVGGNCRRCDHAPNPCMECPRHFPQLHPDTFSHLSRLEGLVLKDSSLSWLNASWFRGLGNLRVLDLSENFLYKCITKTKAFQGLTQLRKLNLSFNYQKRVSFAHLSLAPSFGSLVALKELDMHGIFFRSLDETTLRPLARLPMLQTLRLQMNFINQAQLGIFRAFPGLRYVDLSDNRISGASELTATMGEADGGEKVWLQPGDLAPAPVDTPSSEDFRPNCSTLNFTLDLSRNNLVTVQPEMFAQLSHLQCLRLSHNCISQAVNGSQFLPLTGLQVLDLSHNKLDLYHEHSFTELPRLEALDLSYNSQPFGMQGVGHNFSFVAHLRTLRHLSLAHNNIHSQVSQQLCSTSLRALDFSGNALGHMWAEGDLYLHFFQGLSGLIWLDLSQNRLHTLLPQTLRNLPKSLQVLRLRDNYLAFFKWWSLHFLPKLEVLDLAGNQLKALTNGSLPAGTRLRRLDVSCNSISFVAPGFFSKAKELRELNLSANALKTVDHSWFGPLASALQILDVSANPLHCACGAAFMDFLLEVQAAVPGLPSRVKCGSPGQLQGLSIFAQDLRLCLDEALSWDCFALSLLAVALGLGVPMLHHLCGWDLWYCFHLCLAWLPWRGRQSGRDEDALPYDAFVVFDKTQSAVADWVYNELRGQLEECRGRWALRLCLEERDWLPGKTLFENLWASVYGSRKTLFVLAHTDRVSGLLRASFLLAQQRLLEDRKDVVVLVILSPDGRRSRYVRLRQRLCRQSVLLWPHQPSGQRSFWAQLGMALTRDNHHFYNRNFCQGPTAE
Method in brief: as §1

[3] = molecular target: T3, human TLR7 (Homo sapiens, UniProt Q9NYK1); test: TLR7 inhibition reporter assay (HEK-Blue cells, SEAP reporter, gardiquimod stimulation); conditions: HEK-Blue cells overexpressing human TLR7, SEAP reporter, gardiquimod 7.5 μM
T3 construct: host or cells: HEK-Blue cells
T3 sequence (Q9NYK1 27-1049): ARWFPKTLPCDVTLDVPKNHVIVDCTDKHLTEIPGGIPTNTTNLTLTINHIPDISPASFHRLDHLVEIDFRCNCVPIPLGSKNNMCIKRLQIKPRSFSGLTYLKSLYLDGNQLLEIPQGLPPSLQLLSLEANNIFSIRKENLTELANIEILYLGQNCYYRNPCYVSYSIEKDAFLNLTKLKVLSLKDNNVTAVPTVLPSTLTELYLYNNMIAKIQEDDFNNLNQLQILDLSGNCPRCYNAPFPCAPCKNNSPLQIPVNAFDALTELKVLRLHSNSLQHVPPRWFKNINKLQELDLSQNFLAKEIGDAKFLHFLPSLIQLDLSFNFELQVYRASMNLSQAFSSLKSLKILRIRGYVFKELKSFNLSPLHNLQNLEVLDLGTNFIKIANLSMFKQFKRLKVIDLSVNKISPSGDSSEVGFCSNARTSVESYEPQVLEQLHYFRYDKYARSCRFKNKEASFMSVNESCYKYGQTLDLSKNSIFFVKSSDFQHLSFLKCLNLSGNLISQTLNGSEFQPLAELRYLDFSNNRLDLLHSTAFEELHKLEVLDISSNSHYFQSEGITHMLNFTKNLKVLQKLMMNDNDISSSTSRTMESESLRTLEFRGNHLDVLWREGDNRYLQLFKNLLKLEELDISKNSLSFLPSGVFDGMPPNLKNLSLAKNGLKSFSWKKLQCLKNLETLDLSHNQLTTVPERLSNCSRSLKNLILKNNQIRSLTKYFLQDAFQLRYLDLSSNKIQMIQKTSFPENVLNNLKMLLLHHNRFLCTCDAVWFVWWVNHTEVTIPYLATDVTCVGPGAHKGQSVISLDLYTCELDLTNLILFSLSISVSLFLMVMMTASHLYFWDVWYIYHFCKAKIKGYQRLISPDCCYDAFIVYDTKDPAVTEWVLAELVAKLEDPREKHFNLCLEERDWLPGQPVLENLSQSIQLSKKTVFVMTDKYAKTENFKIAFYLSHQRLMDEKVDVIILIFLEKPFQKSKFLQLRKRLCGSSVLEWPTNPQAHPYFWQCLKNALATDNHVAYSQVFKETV
Method in brief: as §1

| SMILES | IC50 [1] | IC50 [2] | IC50 [3] |
| --- | --- | --- | --- |
| Cc1cc(-c2[nH]nc(-c3nc4c(s3)CN(CC(=O)N(C)C)CC4)c2C(C)C)cn2ncnc12 [Example 275] | 515 nM | > 50000 nM | 413 nM |
| Cc1cc(-c2[nH]nc(C(=O)N[C@H]3CC[C@H](NCC4(C)COC4)CC3)c2C(C)C)cn2ncnc12 [Example 149] | 98.5 nM | > 50000 nM | 108 nM |
| CC(C)c1c(C(=O)NC2CCN(C(C)C)CC2)n[nH]c1-c1ccc(C#N)c2ncccc12 [Example 40] | 31.1 nM | 18900 nM | 29.9 nM |
| Cc1cc(-c2[nH]nc(C(=O)N(C)C3CCN(C)C3)c2C(C)C)cn2ncnc12 (stereo not drawn) [Example 25] | 10.3 nM | 447 nM | 25.6 nM |
| Cc1cc(-c2[nH]nc(-c3ccc(C4CCNCC4)cn3)c2C(C)C)cn2ncnc12 [Example 342] | 12.6 nM | > 50000 nM | 19.6 nM |
| COc1cc(-c2[nH]nc(-c3ccc(C4CCN(CC#N)CC4)cn3)c2C(C)C)cn2ncnc12 [Example 394] | 529 nM | > 50000 nM | 154 nM |
| Cc1cc(-c2[nH]nc(C(=O)NC3CCN(C(C)C)CC3)c2C(C)C)cn2ccnc12 [Example 37] | 27 nM | 27900 nM | 12.1 nM |
| COc1c(C)c(-c2[nH]nc(-c3ccc(C4CCNCC4)cn3)c2C(C)C)cn2ncnc12 [Example 346] | 7.94 nM | 19200 nM | 6.3 nM |
| COc1cc(-c2[nH]nc(-c3ccc(C4CN(CCS(C)(=O)=O)C4)cc3)c2C(C)C)cn2ncnc12 [Example 338] | 31.1 nM | 45600 nM | 10.1 nM |
| CCN1CC(C(=O)N(C)C2CCC(c3n[nH]c(-c4cc(C)c5ncnn5c4)c3C(C)C)CC2)C1 (single isomer, unassigned) [Example 306] | 124 nM | > 50000 nM | 148 nM |
| Cc1cc(-c2[nH]nc(-c3ncc(C4CCN(C)CC4)cn3)c2C(C)C)cn2ncnc12 [Example 368] | 28.1 nM | 5460 nM | 10.5 nM |

These reach a lower IC50 [1]. Values come first.

| IC50 [1] | IC50 [2] | IC50 [3] | SMILES |
| --- | --- | --- | --- |
| 2.74 nM | 17300 nM | 1.27 nM | Cc1cc(-c2[nH]nc(C(=O)N[C@@H]3CCNC3)c2C(C)C)cn2ncnc12 [Example 50] |
| 2.26 nM | 6240 nM | 6.96 nM | Cc1cc(-c2[nH]nc(-c3ccc(C4CN(C)C4)cc3)c2C(C)C)cn2ncnc12 [Example 324, 6-(4-isopropyl-3-(4-(1-methylazetidin-3-yl)phenyl)-1H-pyrazol-5-yl)-8-methyl-[1,2,4]triazolo[1,5-a]pyridine] |
| 7.16 nM | > 50000 nM | 24.3 nM | COCCNc1ccc2nc(-c3n[nH]c(-c4cc(C)c5ncnn5c4)c3C(C)C)sc2c1 [Example 267] |
| 1.4 nM | 1460 nM | 3.63 nM | COc1ncc(CN[C@H]2CC[C@H](NC(=O)c3n[nH]c(-c4cc(C)c5ncnn5c4)c3C(C)C)CC2)cn1 [Example 114] |
| 3.41 nM | 25500 nM | 4.64 nM | Cc1cc(-c2[nH]nc(-c3ccc4c(c3)CCNC4)c2C(C)C)cn2ncnc12 [Example 213, 6-(4-isopropyl-5-(8-methyl-[1,2,4]triazolo[1,5-a]pyridin-6-yl)-1H-pyrazol-3-yl)-1,2,3,4-tetrahydroisoquinoline, HCl] |
| 0.48 nM | 9220 nM | 0.97 nM | Cc1cc(-c2[nH]nc(C(=O)NCC3CNC3)c2C(C)C)cn2ncnc12 [Example 49] |
| 0.46 nM | 7520 nM | 3.18 nM | Cc1cc(-c2[nH]nc(C3CCC(N4CCC(N(C)C)CC4)CC3)c2C(C)C)cn2ncnc12 (single isomer, unassigned) [Example 292] |
| 0.58 nM | 8350 nM | 0.8 nM | COc1cc(-c2[nH]nc(C(=O)NC3CCNCC3)c2CC(F)(F)F)cn2ncnc12 [Example 190, 5-(8-methoxy-[1,2,4]triazolo[1,5-a]pyridin-6-yl)-N-(piperidin-4-yl)-4-(2,2,2-trifluoroethyl)-1H-pyrazole-3-carboxamide] |
| 0.33 nM | 10800 nM | 1.43 nM | Cc1cc(-c2[nH]nc(-c3ccc4c(c3)CCNC4)c2C(C)C)cc(C)n1 [Example 278, 6-(5-(2,6-dimethylpyridin-4-yl)-4-isopropyl-1H-pyrazol-3-yl)-1,2,3,4-tetrahydroisoquinoline] |
| 0.9 nM | 4850 nM | 1.23 nM | Cc1cc(-c2[nH]nc(C(=O)N3CC[C@H](N(C)C)C3)c2C(C)C)cn2ncnc12 [Example 22] |
| 0.39 nM | 16800 nM | 7.65 nM | Cc1cc(-c2[nH]nc(C3CCC(N4CCOCC4)CC3)c2C(C)C)cn2ncnc12 (single isomer, unassigned) [Example 291] |
| 1.15 nM | > 50000 nM | 2.99 nM | Cc1cc(-c2[nH]nc(C(=O)N3CCC(N)CC3)c2C(C)C)cn2ncnc12 [Example 55] |
